Reference: patent US20240059691A1 (KALVISTA PHARMACEUTICALS LIMITED, priority 2020, published 2024)

Experiments:
Plasma Kallikrein = Plasma Kallikrein (Homo sapiens (Human), UniProt P03952); test: Determination of related protease inhibition: Plasma Kallikrein (fluorogenic substrate at Km); assay type: biochemical; conditions: 25° C., read-out: IC50 (human PKal)
Experimental: Determination of Related Protease Inhibition
In vitro inhibition of related proteases was determined using an ([…] assay based on standard literature methods (see e.g. Shori et al., Biochem. Pharmacol., 1992, 43, 1209; Bouckaert et al., European Journal of Medicinal Chemistry 110 (2016) 181). Human serine protease enzymes Plasma Kallikrein, KLK1, FXa, Plasmin, Thrombin and Trypsin were assayed for enzymatic activity using an appropriate fluorogenic substrate at Km concentration, FXIa at fixed substrate concentration of 100 μM, and various concentrations of the test compound. Protease activity was measured by monitoring the accumulation of liberated fluorescence from the substrate over […]. The linear rate of fluorescence increase per minute was expressed as percentage (%) activity. IC50 values were calculated as the concentration of inhibitor giving 50% inhibition of the uninhibited enzyme activity (100%).

Human Factor XIIa = Human Factor XIIa (Homo sapiens (Human), UniProt P00748); test: Determination of FXIIa inhibition (fluorogenic substrate H-DPro-Phe-Arg-AFC, IC50 assay); assay type: biochemical; conditions: substrate H-DPro-Phe-Arg-AFC at Km, 25° C.; class scale A-G
In short: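 Human FXIIa incubated at 25° C with fluorogenic substrate H-DPro-Phe-Arg-AFC at its Km concentration and varying compound concentrations. Fluorescence release monitored over 5 min at 25° C; linear rate expressed as % of uninhibited activity to derive IC50.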

Sequence of Plasma Kallikrein (P03952 391-638): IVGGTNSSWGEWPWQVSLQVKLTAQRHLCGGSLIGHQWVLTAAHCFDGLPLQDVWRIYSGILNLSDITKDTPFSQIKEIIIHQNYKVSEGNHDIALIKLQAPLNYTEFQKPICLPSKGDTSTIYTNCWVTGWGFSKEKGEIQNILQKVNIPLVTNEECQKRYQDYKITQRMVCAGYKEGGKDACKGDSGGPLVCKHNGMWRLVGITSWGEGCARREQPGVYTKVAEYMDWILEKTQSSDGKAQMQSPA
Sequence of Plasma Kallikrein (P03952 20-390 partner): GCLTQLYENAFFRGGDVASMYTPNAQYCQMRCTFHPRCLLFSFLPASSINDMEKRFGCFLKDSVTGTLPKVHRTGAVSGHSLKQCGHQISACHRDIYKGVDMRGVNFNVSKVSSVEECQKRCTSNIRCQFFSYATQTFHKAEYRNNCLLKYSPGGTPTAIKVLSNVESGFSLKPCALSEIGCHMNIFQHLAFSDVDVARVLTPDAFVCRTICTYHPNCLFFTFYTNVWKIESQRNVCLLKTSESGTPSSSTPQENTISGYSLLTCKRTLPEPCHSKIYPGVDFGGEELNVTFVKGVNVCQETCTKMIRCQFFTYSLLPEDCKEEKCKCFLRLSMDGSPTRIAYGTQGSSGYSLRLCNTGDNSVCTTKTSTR
Sequence of Human Factor XIIa (P00748 373-615): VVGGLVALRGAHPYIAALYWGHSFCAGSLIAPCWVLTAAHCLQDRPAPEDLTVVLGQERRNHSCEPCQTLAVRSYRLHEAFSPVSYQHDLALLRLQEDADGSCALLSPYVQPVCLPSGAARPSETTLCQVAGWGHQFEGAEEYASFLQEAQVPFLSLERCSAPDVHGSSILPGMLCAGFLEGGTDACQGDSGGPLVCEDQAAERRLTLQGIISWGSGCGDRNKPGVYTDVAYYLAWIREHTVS

| SMILES | IC50 (Plasma Kallikrein) | IC50 (Human Factor XIIa) |
| --- | --- | --- |
| Cc1n[nH]c2c1CCC2Nc1ccc(CNc2ccc3c(N)ncc(Cl)c3c2)cn1 (stereo not drawn) [Example 1118, 4-chloro-6-N-{[6-({3-methyl-1H,4H,5H,6H-cyclopenta[c]pyrazol-6-yl}amino)pyridin-3-yl]methyl}isoquinoline-1,6-diamine] | > 40 µM | 10 to 40 µM |
| Cc1cn2c(n1)CC(COc1cc(CNc3ccc4c(N)ncc(Cl)c4c3)ccn1)CC2 (single isomer, unassigned) [Example 4442, (R*)-4-chloro-N6-((2-((2-methyl-5,6,7,8-tetrahydroimidazo[1,2-a]pyridin-7-yl)methoxy)pyridin-4-yl)methyl)isoquinoline-1,6-diamine] | 10 to 40 µM | 0.3 to 1 µM |
| Nc1ncc(Cl)c2cc(NCc3ccnc(OCC4CCn5ccnc5C4)c3)ccc12 (single isomer, unassigned) [Example 4439, (R*)-4-chloro-N6-((2-((5,6,7,8-tetrahydroimidazo[1,2-a]pyridin-7-yl)methoxy)pyridin-4-yl)methyl)isoquinoline-1,6-diamine] | 10 to 40 µM | 0.1 to 0.3 µM |
| Cn1c(COc2cc(CNc3cccc4c(N)nccc34)ccn2)nnc1C1CC1 [Example 4468, N5-((2-((5-cyclopropyl-4-methyl-4H-1,2,4-triazol-3-yl)methoxy)pyridin-4-yl)methyl)isoquinoline-1,5-diamine] | > 40 µM | 1 to 3 µM |
| CN1CCC(OCc2ccc(CNc3ccc4cc(N)ncc4c3)cc2)CC1 [Example 2188, 7-N-[(4-{[(1-methylpiperidin-4-yl)oxy]methyl}phenyl)methyl]isoquinoline-3,7-diamine] | 10 to 40 µM | 10 to 40 µM |
| Nc1ncc(Cl)c2cc(NCc3ccnc(NCC4CCn5ccnc5C4)c3)ccc12 (stereo not drawn) [Example 4303, 4-chloro-6-N-{[2-({5H,6H,7H,8H-imidazo[1,2-a]pyridin-7-ylmethyl}amino)pyridin-4-yl]methyl}isoquinoline-1,6-diamine] | > 40 µM | 0.1 to 0.3 µM |
| Nc1nccc2c(NCc3ccnc(OC4CCn5ccnc5C4)c3)cccc12 (stereo not drawn) [Example 4306, 5-N-[(2-{5H,6H,7H,8H-imidazo[1,2-a]pyridin-7-yloxy}pyridin-4-yl)methyl]isoquinoline-1,5-diamine] | 10 to 40 µM | 1 to 3 µM |
| CN1CCC(CNc2ccc(CNc3cc4ccnc(N)c4cn3)cn2)CC1 [Example 1196, N6-((6-(((1-methylpiperidin-4-yl)methyl)amino)pyridin-3-yl)methyl)-2,7-naphthyridine-1,6-diamine] | 3 to 10 µM | 1 to 3 µM |
| CN1CCC(CNc2ccc(CNc3ccc4cccnc4c3)cn2)CC1 [Example 1184, N-((6-(((1-methylpiperidin-4-yl)methyl)amino)pyridin-3-yl)methyl)quinolin-7-amine] | > 100 µM | 10 to 40 µM |
| Nc1ncc(Cl)c2cc(NCc3ccnc(N4CCn5ccnc5C4)c3)ccc12 [Example 5437, 4-chloro-N6-((2-(5,6-dihydroimidazo[1,2-a]pyrazin-7(8H)-yl)pyridin-4-yl)methyl)isoquinoline-1,6-diamine] | > 40 µM | 10 to 40 µM |
| Nc1ncc(F)c2cc(NCc3ccnc(OCC4CCn5ccnc5C4)c3)ccc12 (stereo not drawn) [Example 4307, 4-fluoro-6-N-[(2-{5H,6H,7H,8H-imidazo[1,2-a]pyridin-7-ylmethoxy}pyridin-4-yl)methyl]isoquinoline-1,6-diamine] | > 4 µM | 0.3 to 1 µM |
| Nc1ncc(Cl)c2cc(NCc3ccc(N4CCC(CC(F)F)C4)nc3)ccc12 (stereo not drawn) [Example 1266, 4-chloro-N6-((6-(3-(2,2-difluoroethyl)pyrrolidin-1-yl)pyridin-3-yl)methyl)isoquinoline-1,6-diamine] | > 40 µM | 10 to 40 µM |
| Nc1ncc(Cl)c2cc(NCc3ccnc(NCCC(=O)N4CCCC4)c3)ccc12 [Example 4428, 3-[(4-{[(1-amino-4-chloroisoquinolin-6-yl)amino]methyl}pyridin-2-yl)amino]-1-(pyrrolidin-1-yl)propan-1-one] | > 4 µM | 1 to 3 µM |
| Cc1cc2c(NCc3ccc(OCC4CCN(C)CC4)nc3)ccnc2[nH]1 [Example 1249, 2-methyl-N-((6-((1-methylpiperidin-4-yl)methoxy)pyridin-3-yl)methyl)-1H-pyrrolo[2,3-b]pyridin-4-amine] | > 40 µM | 0.3 to 1 µM |
| CN1CCC(CNc2ccc(CNc3ccc4c(N)ncc(Cl)c4c3)cn2)CC1 [Example 1193, 4-chloro-N6-((6-(((1-methylpiperidin-4-yl)methyl)amino)pyridin-3-yl)methyl)isoquinoline-1,6-diamine] | 3 to 10 µM | 0.1 to 0.3 µM |
| CC(C)(O)C1CN(c2ccc(CNc3cccc4c(N)nccc34)cn2)Cc2nccn21 (stereo not drawn) [Example 1135, 2-(7-(5-(((1-aminoisoquinolin-5-yl)amino)methyl)pyridin-2-yl)-5,6,7,8-tetrahydroimidazo[1,2-a]pyrazin-5-yl)propan-2-ol] | > 40 µM | 3 to 10 µM |

| SMILES | IC50 (Plasma Kallikrein) | IC50 (Human Factor XIIa) |
| --- | --- | --- |
| Nc1nccc2c(NCc3ccc(N4CC5(CC(O)c6nccn65)C4)cc3)cccc12 (stereo not drawn) [Example 2253, 1-(4-(((1-aminoisoquinolin-5-yl)amino)methyl)phenyl)-6′,7′-dihydrospiro[azetidine-3,5′-pyrrolo[1,2-a]imidazol]-7′-ol] | > 40 µM | 3 to 10 µM |
| FC(F)(F)c1nnc2n1CCN(c1ccc(CNc3ccc4cnccc4c3)cn1)C2 [Example 1283, N-((6-(3-(trifluoromethyl)-5,6-dihydro-[1,2,4]triazolo[4,3-a]pyrazin-7(8H)-yl)pyridin-3-yl)methyl)isoquinolin-6-amine] | > 40 µM | 3 to 10 µM |
| CN1CCC(CNc2ccc(CNc3ccncc3)cn2)CC1 [Example 1258, N-((1-methylpiperidin-4-yl)methyl)-5-((pyridin-4-ylamino)methyl)pyridin-2-amine] | > 40 µM | 10 to 40 µM |
| CN1CCC(CNc2ccc(CNc3cnc4cccnn34)cn2)CC1 [Example 1187, N-((6-(((1-methylpiperidin-4-yl)methyl)amino)pyridin-3-yl)methyl)imidazo[1,2-b]pyridazin-3-amine] | > 100 µM |  |
| CN1CCC(CNc2ccc(CNc3cc(C#N)nc4[nH]ccc34)cn2)CC1 [Example 1261, 4-(((6-(((1-methylpiperidin-4-yl)methyl)amino)pyridin-3-yl)methyl)amino)-1H-pyrrolo[2,3-b]pyridine-6-carbonitrile] | > 40 µM |  |
| CN1CCC(CNc2ccc(CNc3cnc4ccccc4c3)cn2)CC1 [Example 1183, N-((6-(((1-methylpiperidin-4-yl)methyl)amino)pyridin-3-yl)methyl)quinolin-3-amine] | > 100 µM |  |
| CN1CCC(CNc2ccc(CNc3cccn4ccnc34)cn2)CC1 [Example 1190, N-((6-(((1-methylpiperidin-4-yl)methyl)amino)pyridin-3-yl)methyl)imidazo[1,2-a]pyridin-8-amine] | > 100 µM |  |
| CN1CCC(CNc2ccc(CNc3cnc4[nH]cc(C#N)c4c3)cn2)CC1 [Example 1212, 5-(((6-(((1-methylpiperidin-4-yl)methyl)amino)pyridin-3-yl)methyl)amino)-1H-pyrrolo[2,3-b]pyridine-3-carbonitrile] | > 100 µM |  |
| Cc1cc2c(NCc3ccc(NCC4CCN(C)CC4)nc3)ccnc2n1C [Example 1216, 1,2-dimethyl-N-((6-(((1-methylpiperidin-4-yl)methyl)amino)pyridin-3-yl)methyl)-1H-pyrrolo[2,3-b]pyridin-4-amine] | > 100 µM |  |
| CN1CCC(CNc2ccc(CNc3ccn4ccnc4c3)cn2)CC1 [Example 1222, N-((6-(((1-methylpiperidin-4-yl)methyl)amino)pyridin-3-yl)methyl)imidazo[1,2-a]pyridin-7-amine] | > 40 µM |  |
| Cc1ncc(NCc2ccc(NCC3CCN(C)CC3)nc2)c2cc[nH]c12 [Example 1244, 7-methyl-N-((6-(((1-methylpiperidin-4-yl)methyl)amino)pyridin-3-yl)methyl)-1H-pyrrolo[2,3-c]pyridin-4-amine] | > 100 µM |  |
| COc1ccc2ncc(NCc3ccc(NCC4CCN(C)CC4)nc3)cc2c1 [Example 1177, 6-methoxy-N-((6-(((1-methylpiperidin-4-yl)methyl)amino)pyridin-3-yl)methyl)quinolin-3-amine] | > 100 µM |  |
| CN1CCC(CNc2ccc(CNc3cnn(-c4cccc(Cl)c4)c3)cn2)CC1 [Example 1116, 5-(((1-(3-chlorophenyl)-1H-pyrazol-4-yl)amino)methyl)-N-((1-methylpiperidin-4-yl)methyl)pyridin-2-amine] | > 100 µM |  |
| Nc1ncc(Cl)c2cc(NCc3ccnc(OCC4CCn5c(C(=O)O)cnc5C4)c3)ccc12 (stereo not drawn) [Example 4453, 7-(((4-(((1-amino-4-chloroisoquinolin-6-yl)amino)methyl)pyridin-2-yl)oxy)methyl)-5,6,7,8-tetrahydroimidazo[1,2-a]pyridine-3-carboxylic acid] | > 40 µM |  |
| CN1CCC(CNc2ccc(CNc3nc4ccccc4n3C)cn2)CC1 [Example 1192, 1-methyl-N-((6-(((1-methylpiperidin-4-yl)methyl)amino)pyridin-3-yl)methyl)-1H-benzo[d]imidazol-2-amine] | > 100 µM |  |
| CN1CCC(CNc2ccc(CNc3cc(C(=O)O)c4cnccc4c3)cn2)CC1 [Example 1203, 6-(((6-(((1-methylpiperidin-4-yl)methyl)amino)pyridin-3-yl)methyl)amino)isoquinoline-8-carboxylic acid] | > 100 µM |  |
